Reference: patent US7465729B2, “Methods of treatment of menopause and perimenopause using eszopiclone” (Sepracor Inc., priority 2004, dated 2008)

Columns and labels:
[1] = system: women with insomnia secondary to perimenopause or menopause; assay: Clinical study: number of nocturnal awakenings due to hot flashes; format: in vivo; settings: 3 mg nightly, ITT; for Number of Nocturnal Awakenings due to Hot Flashes, Change from Baseline, Least Squares Means (SE) [3]: ANCOVA; for Number of Nocturnal Awakenings due to Hot Flashes, Observed Value, Least Squares Means (SE) [2]: ANOVA
Experimental: (§1) The study was aimed at observing efficacy of eszopiclone 3 mg compared to placebo in the treatment of insomnia secondary to perimenopause or menopause. The study was a multicenter, randomized, double-blind, placebo-controlled, parallel-group study. […] The primary method of analysis compared the post-randomization results between the two treatment groups.
(§2) Subjects were women with insomnia secondary to perimenopause or menopause. Subjects were perimenopausal or menopausal and had insomnia symptoms including ≧45 minutes sleep latency (SL) and total sleep time (TST) ≦6 hours. Perimenopausal/menopausal symptoms predated the onset of sleep disturbance symptoms. The patient population was predominately Caucasian (77.2%). The mean age was 49, with a range of 40-60.
(§3) A total of 410 subjects were randomized. Among them, 201 received 3 mg of eszopiclone (ESZ) nightly (at bedtime) for four weeks and 209 received matching placebo (PBO).

[2] = system: women with insomnia secondary to perimenopause or menopause; assay: Clinical study: discontinuation rates; format: in vivo; settings: 3 mg nightly for four weeks
Experimental: as §1, §2, §3

mice = assay: Antimuscarinic activity in vivo: oxotremorine induced salivation; settings: doses up to 300 mg/kg, p.o.
Experimental: Eszopiclone was evaluated for antimuscarinic activity in vivo.

[3] = system: women with insomnia secondary to perimenopause or menopause; assay: Clinical study: Physician Global Assessment of perimenopausal or menopausal symptoms; format: in vivo; settings: ITT; for Physician Global Assessment, Observed Value, Mean (SD): score 1 = Very much improved to 7 = Very much worse; for Physician Global Assessment, Observed Value, Least Squares Means (SE) [1]: ANOVA
Experimental: as §1, §2, §3
A Physician Global Assessment was administered at Week 4, the end of the double-blind treatment period.

conscious dogs = assay: Dose escalation safety study, cardiovascular and respiratory parameters; settings: acute intravenous, 3, 5 and 12 mg/kg
Experimental: To establish the safety of eszopiclone, a dose escalation study was carried out. Cardiovascular and respiratory parameters were evaluated in conscious dogs following acute intravenous administration of (R)-, (S)- or racemic zopiclone at three doses (3, 5 and 12 mg/kg).

muscarinic receptors = assay: In vitro affinity for muscarinic receptors; format: binding

SMILES: CN1CCN(C(=O)O[C@H]2c3nccnc3C(=O)N2c2ccc(Cl)cn2)CC1 [Eszopiclone, (+)6-(5-chloropyrid-2-yl)-5-(4-methylpiperazin-1-yl)carbonyloxy-7-oxo-6,7-dihydro-5H-pyrrolo[3-4-b]pyrazine]
- Number of Nocturnal Awakenings due to Hot Flashes, Change from Baseline, Mean (SD) ([1]; Week 3): −0.7 (1.1)
- Number of Nocturnal Awakenings due to Hot Flashes, Change from Baseline, Median ([1]; Week 3): −0.4
- Number of Nocturnal Awakenings due to Hot Flashes, Change from Baseline, Minimum ([1]; Week 3): −6.0
- Number of Nocturnal Awakenings due to Hot Flashes, Observed Value, 25th Percentile ([1]; Week 3): 0.0
- Number of Nocturnal Awakenings due to Hot Flashes, Observed Value, 75th Percentile ([1]; Week 3): 1.0
- Number of Nocturnal Awakenings due to Hot Flashes, Observed Value, Maximum ([1]; Week 3): 3.0
- Number of Nocturnal Awakenings due to Hot Flashes, Observed Value, Mean (SD) ([1]; Week 3): 0.5 (0.7)
- Number of Nocturnal Awakenings due to Hot Flashes, Observed Value, Median ([1]; Week 3): 0.0
- Number of Nocturnal Awakenings due to Hot Flashes, Observed Value, Minimum ([1]; Week 3): 0.0
- Number of Nocturnal Awakenings due to Hot Flashes, Change from Baseline, Least Squares Means (SE) [3] ([1]; Week 3): −0.6 (0.1)
- Number of Nocturnal Awakenings due to Hot Flashes, Observed Value, Least Squares Means (SE) [2] ([1]; Week 3): 0.5 (0.1)
- Number of Nocturnal Awakenings due to Hot Flashes, Change from Baseline, 25th Percentile ([1]; Week 4): −1.3
- Number of Nocturnal Awakenings due to Hot Flashes, Change from Baseline, 75th Percentile ([1]; Week 4): 0.0
- Number of Nocturnal Awakenings due to Hot Flashes, Change from Baseline, Maximum ([1]; Week 4): 2.1
- Number of Nocturnal Awakenings due to Hot Flashes, Change from Baseline, Mean (SD) ([1]; Week 4): −0.8 (1.2)
- Number of Nocturnal Awakenings due to Hot Flashes, Change from Baseline, Median ([1]; Week 4): −0.7
- Number of Nocturnal Awakenings due to Hot Flashes, Change from Baseline, Minimum ([1]; Week 4): −6.0
- Number of Nocturnal Awakenings due to Hot Flashes, Observed Value, 25th Percentile ([1]; Week 4): 0.0
- Number of Nocturnal Awakenings due to Hot Flashes, Observed Value, 75th Percentile ([1]; Week 4): 1.0
- Number of Nocturnal Awakenings due to Hot Flashes, Observed Value, Maximum ([1]; Week 4): 3.6
- Number of Nocturnal Awakenings due to Hot Flashes, Observed Value, Mean (SD) ([1]; Week 4): 0.4 (0.7)
- Number of Nocturnal Awakenings due to Hot Flashes, Observed Value, Median ([1]; Week 4): 0.0
- Number of Nocturnal Awakenings due to Hot Flashes, Observed Value, Minimum ([1]; Week 4): 0.0
- Number of Nocturnal Awakenings due to Hot Flashes, Change from Baseline, Least Squares Means (SE) [3] ([1]; Week 4): −0.7 (0.1)
- Number of Nocturnal Awakenings due to Hot Flashes, Observed Value, Least Squares Means (SE) [2] ([1]; Week 4): 0.4 (0.1)
- discontinuation rate [2]: 11.9%
- antagonism of oxotremorine induced salivation (mice): neither (R)-, (S)-, nor racemic zopiclone significantly antagonized oxotremorine induced salivation
- Physician Global Assessment, Observed Value, 25th Percentile ([3]; Visit 3 (Baseline), 3 mg group): 4.0
- Physician Global Assessment, Observed Value, 75th Percentile ([3]; Visit 3 (Baseline), 3 mg group): 4.0
- Physician Global Assessment, Observed Value, Maximum ([3]; Visit 3 (Baseline), 3 mg group): 7.0
- Physician Global Assessment, Observed Value, Median ([3]; Visit 3 (Baseline), 3 mg group): 4.0
- Physician Global Assessment, Observed Value, Minimum ([3]; Visit 3 (Baseline), 3 mg group): 0.0
- Physician Global Assessment, Observed Value, Mean (SD) ([3]; Visit 3 (Baseline), 3 mg group, 0 = Not assessed): 3.7 (1.0)
- Physician Global Assessment, Change from Baseline, 25th Percentile ([3]; Visit 5 (Week 4), 3 mg nightly): −2.0
- Physician Global Assessment, Change from Baseline, 75th Percentile ([3]; Visit 5 (Week 4), 3 mg nightly): 0.0
- Physician Global Assessment, Change from Baseline, Maximum ([3]; Visit 5 (Week 4), 3 mg nightly): 6.0
- Physician Global Assessment, Change from Baseline, Mean (SD) ([3]; Visit 5 (Week 4), 3 mg nightly): −1.0 (1.4)
- Physician Global Assessment, Change from Baseline, Median ([3]; Visit 5 (Week 4), 3 mg nightly): −1.0
- Physician Global Assessment, Change from Baseline, Minimum ([3]; Visit 5 (Week 4), 3 mg nightly): −4.0
- Physician Global Assessment, Observed Value, 25th Percentile ([3]; Visit 5 (Week 4), 3 mg nightly): 2.0
- Physician Global Assessment, Observed Value, 75th Percentile ([3]; Visit 5 (Week 4), 3 mg nightly): 4.0
- Physician Global Assessment, Observed Value, Maximum ([3]; Visit 5 (Week 4), 3 mg nightly): 6.0
- Physician Global Assessment, Observed Value, Median ([3]; Visit 5 (Week 4), 3 mg nightly): 2.0
- Physician Global Assessment, Observed Value, Minimum ([3]; Visit 5 (Week 4), 3 mg nightly): 1.0
- Physician Global Assessment, Change from Baseline, Least Squares Means (SE) [2] ([3]; Visit 5 (Week 4), 3 mg nightly, ANCOVA): −0.9 (0.1)
- Physician Global Assessment, Observed Value, Least Squares Means (SE) [1] ([3]; Visit 5 (Week 4), 3 mg nightly): 2.7 (0.1)
- Physician Global Assessment, Observed Value, Least Squares Means (SE) [1] ([3]; Visit 5 (Week 4), 3 mg nightly, listed as ESZ): 2.7
- Physician Global Assessment, Observed Value, Mean (SD) ([3]; Visit 5 (Week 4), 3 mg nightly): 2.6 (1.2)
- cardiotoxicity, as evidenced by the electrocardiogram (ECG) (conscious dogs): No evidence of cardiotoxicity
- effect on blood pressure (conscious dogs): dose dependent, transient decreases in blood pressure
- effect on heart rate (conscious dogs): compensatory increase in heart rate
- Blood gases and blood chemistries (pH, pCO2, pO2, hematocrit, and lactate) (conscious dogs; all dose groups): remained unaffected
- in vitro affinity for muscarinic receptors (muscarinic receptors): lack of in vitro affinity
